# Where two headings read alike, the source gives them in different places.
# Legend:
# [1] = test system: cGAS activity in THP1 cells (IFNb as marker); test: Cellular assay to measure cGAS activity (IFNb production in PMA-differentiated THP1 cells stimulated by RDG-Adenovirus-GFP); format: cell-based, human; conditions: PMA differentiated, RDG-Adenovirus-GFP 1000 MOI, IFNb AlphaLISA, overnight incubation, read-out: IC50 (μM), Cellular assay for Compounds 95-348
# Procedure: Cellular assay to measure cGAS activity: Use THP1 cell line from ATCC to determine inhibition of cGAS activity by test compounds in human cells. Plate cells on 96-well plates at 0.2×10^6/well and differentiate with phorbol myristate acetate (PMA) at 37° C./5% CO2. After 24 hours, replace PMA containing media with media lacking PMA and further incubate overnight. Stimulate cells were then by RDG-Adenovirus-GFP (Vector Biolabs #1768) at 1000 MOI for 4 hours prior to the addition of test compounds. After overnight incubation, transfer 10 μL of the media from each well to a new plate for IFNb analysis as a marker for cGAS activity. Measure quantification of IFNb with an IFNb AlphaLISA Detection kit (Perkin Elmer AL3133F) by mixing the acceptor beads with the cell supernatant followed by the addition of the biotinylated antibody and donor beads. Measure the relative fluorescence signal produced from the interaction of the donor and acceptor beads by a PHERAStar AlphaLISA protocol and evaluate the inhibitory effect of a compound by plotting specific inhibition of IFNb production against log concentration of the test compound. Calculate IC50 values using a 4-parameter non-linear logistic equation (y=(S0+((SInf−S0)/(1+((qAC50/x)^nHill))))).
# recombinant human cGAS = recombinant human cGAS (Homo sapiens (Human), UniProt Q8N884); test: In vitro inhibition assay of cGAS activity (cGAMP production, RapidFire mass spectrometry); format: biochemical; conditions: 10 nM recombinant human cGAS, 60 nM 75-bp dsDNA, ATP, GTP, room temperature 3 hours, read-out: IC50 (μM), In vitro inhibition assay for Compounds 95-348
# In short: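 Full-length His6-tagged human cGAS (10 nM, E. coli-expressed) was incubated 3 h at room temperature with 60 nM 75-bp dsDNA, ATP, 50 μM GTP and compound at pH 7.5 with 5 mM MgCl2. cGAMP formation was measured by RapidFire mass spectrometry, and IC50 was taken from a 4-parameter logistic fit.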
# [2] = Homo sapiens, THP-1, THP1 cells
# Sequence of recombinant human cGAS (Q8N884 whole entry): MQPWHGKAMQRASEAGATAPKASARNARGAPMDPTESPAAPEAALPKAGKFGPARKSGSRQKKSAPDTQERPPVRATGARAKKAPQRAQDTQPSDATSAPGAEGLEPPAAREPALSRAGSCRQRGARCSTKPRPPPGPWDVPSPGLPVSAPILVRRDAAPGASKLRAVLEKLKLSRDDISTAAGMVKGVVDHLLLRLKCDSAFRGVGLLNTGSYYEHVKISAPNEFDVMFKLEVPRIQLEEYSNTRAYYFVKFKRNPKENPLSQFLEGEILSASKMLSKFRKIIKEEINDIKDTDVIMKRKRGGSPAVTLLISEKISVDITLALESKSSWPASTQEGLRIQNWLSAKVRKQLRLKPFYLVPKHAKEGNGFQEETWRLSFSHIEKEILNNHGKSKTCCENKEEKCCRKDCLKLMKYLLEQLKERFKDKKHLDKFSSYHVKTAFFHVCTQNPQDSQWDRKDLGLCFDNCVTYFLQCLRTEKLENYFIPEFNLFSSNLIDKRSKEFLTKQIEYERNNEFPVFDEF
"IC50 [1, 2]",IC50 (recombinant human cGAS),IC50 ([1]; THP1 cells),SMILES
2.17 µM,0.0365 µM,–,"O[C@H]1CC[C@@H](Nc2cc(Cl)c(Cl)c3[nH]cc(-c4cn[nH]c4)c23)C1 (single isomer, unassigned; isomer 2) [Example 210, Cis-3-[[6,7-Dichloro-3-(1H-pyrazol-4-yl)-1H-indol-4-yl]amino]cyclopentanol, isomer 2]"
–,0.0472 µM,9.35 µM,"OCCC1CCn2c1c(-c1cn[nH]c1)c1ccc(Cl)c(Cl)c12 (single isomer, unassigned; isomer 2) [Example 243, 2-(5,6-Dichloro-9-(1H-pyrazol-4-yl)-2,3-dihydro-1H-pyrrolo[1,2-a]indol-1-yl)ethan-1-ol isomer 2]"
2.06 µM,0.0159 µM,–,"O=C(CO)NC1CCc2c(-c3cn[nH]c3)c3ccc(Cl)c(Cl)c3n2C1 (centres unmarked) [Example 95, N-[3,4-Dichloro-10-(1H-pyrazol-4-yl)-6,7,8,9-tetrahydropyrido[1,2-a]indol-7-yl]-2-hydroxy-acetamide]"
2.43 µM,0.0449 µM,–,"O=C(NC1CCc2c(-c3cn[nH]c3)c3ccc(Cl)c(Cl)c3n2C1)C1CCOCC1 (centres unmarked) [Example 96, N-[3,4-Dichloro-10-(1H-pyrazol-4-yl)-6,7,8,9-tetrahydropyrido[1,2-a]indol-7-yl]tetrahydropyran-4-carboxamide]"
1.28 µM,0.0166 µM,–,"CC(=O)NC1CCc2c(-c3cn[nH]c3)c3c(OCC#N)cc(Cl)c(Cl)c3n2C1 (centres unmarked) [Example 102, N-[3,4-Dichloro-1-(cyanomethoxy)-10-(1H-pyrazol-4-yl)-6,7,8,9-tetrahydropyrido[1,2-a]indol-7-yl]acetamide]"
> 10 µM,0.051 µM,–,"O=C(Cn1cnnc1)NCc1[nH]c2c(Cl)c(Cl)ccc2c1-c1cn[nH]c1 [Example 103, N-((6,7-Dichloro-3-(1H-pyrazol-4-yl)-1H-indol-2-yl)methyl)-2-(4H-1,2,4-triazol-4-yl)acetamide]"
5.56 µM,0.0196 µM,–,"CC(=O)NCC(=O)NC1CCc2c(-c3cn[nH]c3)c3ccc(Cl)c(Cl)c3n2C1 (centres unmarked) [Example 107, 2-Acetamido-N-[3,4-dichloro-10-(1H-pyrazol-4-yl)-6,7,8,9-tetrahydropyrido[1,2-a]indol-7-yl]acetamide]"
> 10 µM,0.0468 µM,–,"O=C(Cn1ccnc1)N1CCn2c(c(-c3cn[nH]c3)c3ccc(Cl)c(Cl)c32)C1 [Example 111, 1-[6,7-Dichloro-10-(1H-pyrazol-4-yl)-3,4-dihydro-1H-pyrazino[1,2-a]indol-2-yl]-2-imidazol-1-yl-ethanone]"
1.56 µM,0.0361 µM,–,"O=C(Cc1cnccn1)NCc1[nH]c2c(Cl)c(Cl)ccc2c1-c1cn[nH]c1 [Example 112, N-((6,7-Dichloro-3-(1H-pyrazol-4-yl)-1H-indol-2-yl)methyl)-2-(pyrazin-2-yl)acetamide]"
3.46 µM,0.018 µM,–,"CN(C)C(=O)CCC(=O)N1CCn2c(c(-c3cn[nH]c3)c3c(OCC#N)cc(Cl)c(Cl)c32)C1 [Example 113, 4-[6,7-Dichloro-9-(cyanomethoxy)-10-(1H-pyrazol-4-yl)-3,4-dihydro-1H-pyrazino[1,2-a]indol-2-yl]-N,N-dimethyl-4-oxo-butanamide]"
1.53 µM,0.0244 µM,–,"CN1CCOC[C@@H]1CC(=O)N1CCn2c(c(-c3cn[nH]c3)c3c(OCC#N)cc(Cl)c(Cl)c32)C1 [Example 114, (S)-2-((6,7-Dichloro-2-(2-(4-methylmorpholin-3-yl)acetyl)-10-(1H-pyrazol-4-yl)-1,2,3,4-tetrahydropyrazino[1,2-a]indol-9-yl)oxy)acetonitrile]"
1.12 µM,0.0288 µM,–,"CN1CCOC[C@H]1CC(=O)N1CCn2c(c(-c3cn[nH]c3)c3c(OCC#N)cc(Cl)c(Cl)c32)C1 [Example 115, (R)-2-((6,7-Dichloro-2-(2-(4-methylmorpholin-3-yl)acetyl)-10-(1H-pyrazol-4-yl)-1,2,3,4-tetrahydropyrazino[1,2-a]indol-9-yl)oxy)acetonitrile]"
5.23 µM,0.0217 µM,–,"CC(=O)NC1CCCn2c1c(-c1cn[nH]c1)c1ccc(Cl)c(Cl)c12 (centres unmarked) [Example 116, N-(3,4-Dichloro-10-(1H-pyrazol-4-yl)-6,7,8,9-tetrahydropyrido[1,2-a]indol-9-yl)acetamide]"
2.49 µM,0.0153 µM,–,"COCCS(=O)(=O)NC1CCc2c(-c3cn[nH]c3)c3ccc(Cl)c(Cl)c3n2C1 (centres unmarked) [Example 117, N-[3,4-Dichloro-10-(1H-pyrazol-4-yl)-6,7,8,9-tetrahydropyrido[1,2-a]indol-7-yl]-2-methoxy-ethanesulfonamide]"
3.61 µM,0.0165 µM,–,"CNC(=O)CCS(=O)(=O)NC1CCc2c(-c3cn[nH]c3)c3ccc(Cl)c(Cl)c3n2C1 (centres unmarked) [Example 118, 3-(N-(3,4-Dichloro-10-(1H-pyrazol-4-yl)-6,7,8,9-tetrahydropyrido[1,2-a]indol-7-yl)sulfamoyl)-N-methylpropanamide]"
3.66 µM,0.0186 µM,–,"CC(=O)NCCS(=O)(=O)NC1CCc2c(-c3cn[nH]c3)c3ccc(Cl)c(Cl)c3n2C1 (centres unmarked) [Example 119, N-(2-(N-(3,4-Dichloro-10-(1H-pyrazol-4-yl)-6,7,8,9-tetrahydropyrido[1,2-a]indol-7-yl)sulfamoyl)ethyl)acetamide]"
2.27 µM,0.0154 µM,–,"O=S(=O)(CCn1cnnn1)NC1CCc2c(-c3cn[nH]c3)c3ccc(Cl)c(Cl)c3n2C1 (centres unmarked) [Example 120, N-(3,4-Dichloro-10-(1H-pyrazol-4-yl)-6,7,8,9-tetrahydropyrido[1,2-a]indol-7-yl)-2-(1H-tetrazol-1-yl)ethane-1-sulfonamide]"
2.99 µM,0.0652 µM,–,"OC/C=C/CNc1cc(Cl)c(Cl)c2[nH]cc(-c3cn[nH]c3)c12 [Example 121, (E)-4-((6,7-Dichloro-3-(1H-pyrazol-4-yl)-1H-indol-4-yl)amino)but-2-en-1-ol]"
0.88 µM,0.0137 µM,–,"FC(F)CNc1cc(Cl)c(Cl)c2[nH]cc(-c3cn[nH]c3)c12 [Example 122, 6,7-Dichloro-N-(2,2-difluoroethyl)-3-(1H-pyrazol-4-yl)-1H-indol-4-amine]"
0.547 µM,0.00491 µM,–,"FCCNc1cc(Cl)c(Cl)c2[nH]cc(-c3cn[nH]c3)c12 [Example 123, 6,7-Dichloro-N-(2-fluoroethyl)-3-(1H-pyrazol-4-yl)-1H-indol-4-amine]"
> 10 µM,0.0882 µM,–,"NCCOCCOCCOCCC(=O)NC1CCc2c(-c3cn[nH]c3)c3ccc(Cl)c(Cl)c3n2C1 (centres unmarked) [Example 124, 3-[2-[2-(2-Aminoethoxy)ethoxy]ethoxy]-N-[3,4-dichloro-10-(1H-pyrazol-4-yl)-6,7,8,9-tetrahydropyrido[1,2-a]indol-7-yl]propanamide]"
0.426 µM,0.0103 µM,–,"CC(CO)COc1cc(Cl)c(Cl)c2[nH]cc(-c3cn[nH]c3)c12 (centres unmarked) [Example 125, 3-((6,7-Dichloro-3-(1H-pyrazol-4-yl)-1H-indol-4-yl)oxy)-2-methylpropan-1-ol]"
0.216 µM,0.029 µM,–,"Cc1nnc(-c2[nH]c3c(Cl)c(Cl)ccc3c2-c2cn[nH]c2)o1 [Example 127, 2-(6,7-Dichloro-3-(1H-pyrazol-4-yl)-1H-indol-2-yl)-5-methyl-1,3,4-oxadiazole]"
> 10 µM,0.0691 µM,–,"FC(F)(F)c1nnc(-c2[nH]c3c(Cl)c(Cl)ccc3c2-c2cn[nH]c2)o1 [Example 128, 2-(6,7-Dichloro-3-(1H-pyrazol-4-yl)-1H-indol-2-yl)-5-(trifluoromethyl)-1,3,4-oxadiazole]"
0.895 µM,0.0552 µM,–,"CC(=S)NCc1[nH]c2c(Cl)c(Cl)ccc2c1-c1cn[nH]c1 [Example 129, N-[[6,7-Dichloro-3-(1H-pyrazol-4-yl)-1H-indol-2-yl]methyl]thioacetamide]"
0.815 µM,0.0711 µM,–,"CC(=O)Nc1cc(Cl)c(Cl)c2[nH]c(CO)c(-c3cn[nH]c3)c12 [Example 130, N-(6,7-Dichloro-2-(hydroxymethyl)-3-(1H-pyrazol-4-yl)-1H-indol-4-yl)acetamide]"
0.163 µM,0.0131 µM,–,"O=C(Nc1cc(Cl)c(Cl)c2[nH]c(CO)c(-c3cn[nH]c3)c12)C(F)F [Example 131, N-(6,7-Dichloro-2-(hydroxymethyl)-3-(1H-pyrazol-4-yl)-1H-indol-4-yl)-2,2-difluoroacetamide]"

SMILES,"IC50 [1, 2]",IC50 (recombinant human cGAS),IC50 ([1]; THP1 cells)
"F[C@H]1C[C@@H](Oc2cc(Cl)c(Cl)c3[nH]cc(-c4cn[nH]c4)c23)C1 [Example 126, 6,7-Dichloro-4-(cis-3-fluorocyclobutoxy)-3-(1H-pyrazol-4-yl)-1H-indole]",1.45 µM,0.0358 µM,–
